These results are taken from patent US6469132B1, “Diblock copolymer and use thereof in a micellar drug delivery system” (McGill University, priority 1999, dated 2002).

Values joined by “and” are separate entries in the source; they are usually repeats but may differ in a detail not shown here. Equal values may be shown once.

The subject of data set [1] is PC 12 rat pheochromocytoma cells. Briefly: Cell differentiation assay: neurite-like outgrowth. Type of data set: cell-based. As to the method: In each case, the degree of neurite-like outgrowth was taken to be 100% in the control wells of untreated PC 12 cells. The degree of differentiation in cell wells in the presence of NGF and/or drug is expressed as a percentage relative to 100% for the control.
PC 12 cells were plated in 24 well plates at 37° C. in 5% CO2 and incubated in DMEM supplemented with 5% fetal bovine serum and the treatments described below. Neurite-like outgrowth in PC 12 cells was detected after a 48 hour period using a Nikon light microscope. For each data point 5 fields of 250-300 cells/well were analyzed. For the quantitation of neurite-like outgrowth the PC 12 cells were considered to have outgrowth if their processes were longer than the length of the diameter of the cell.
A range of concentrations of either NGF (0.1 to 50 ng/mL), FK506 (1 to 500 nM) or L,685-818 (1 to 500 nM) alone or combinations of 0.5 or 5 ng/mL of NGF with either FK506 (5 to 500 nM) or L-685,818 (50 nM to 10 μM), were incubated with the PC 12 cells for a 48 hour incubation period. The wells with untreated cells were used as controls.
The unfiltered solution of the micelle incorporated drug was added to the cell wells at different concentrations: a 10 μL aliquot of a FK506-micelle solution was added to each 0.5 mL cell well. The 10 μL aliquot was produced by diluting the 1.1×10^−5 moles/L FK506-PCL20-b-PEO44 micelle (1% w/w) stock solution. The final concentration of FK506 in the cell well was made to range from […]. In the same manner, a 10 uL aliquot of the L-685,818 micelle solution was added to each 0.5 mL cell well, such that final concentration in the well was made to range from 10 nM to 1 μM. In each case, 5 ng/mL NGF was also added to each cell well. Several controls were also used where the cells were treated with 5 ng/mL of NGF alone, 1% (w/w) PCL20-b-PEO44 micelles alone, 1% (w/w) PCL20-b-PEO44 micelles containing 1 nM FK 506 without NGF or 1% (w/w) PCL20-b-PEO44 micelles containing 10 nM L-685,818.

A short description of data set [2]: Partition coefficient for pyrene between PCL-b-PEO micelles and water (fluorescence I3/I1 method). Type of data set: physicochemical. The note with it: extrapolation to 100% water content; PCL-b-PEO (20-b-44) micelles. As to the method: The degree of non-covalent incorporation of physical entrapment of a hydrophobic drug into a micelle is determined by the partition coefficient of the drug between the micellar core and the surrounding aqueous medium. The affinity of the PCL-b-PEO micelles for lipophilic compounds was assayed by the determination of the Kv for the hydrophobic model compound, pyrene, between the PCL-b-PEO micelles and water. This method has been previously used to determine the Kv of pyrene between polystyrene-b-polyacrylic acid micelles and water. This fluorescence method is based on pyrene's sensitivity to the hydrophobicity of its microenvironment. […]
The fluorescence method used to determine the partition coefficient for pyrene between a mixed water/DMF solvent mixture (60-90% water content) and block copolymer micelles (concentration PCL20-b-PEO44 ranges from 1×10^−6 to 1×10^−2 g/g), at 25° C., has been described in detail elsewhere (Zhao, J. et al. (1997) Macromolecules, 30:7143-7150). […] Briefly, the intensity ratio of vibrational band three to vibrational band one (I3/I1) in the fluorescence emission spectrum of pyrene reflects the polarity of the surrounding environment of the probe molecules. […]
Steady-state fluorescent spectra were measured using a SPEX Fluorolog 2 spectrometer in the right-angle geometry (90° collecting optics). […] For fluorescence emission spectra, λεξ was 339 nm. […]

Another data set has as its system PC 12 cells. Briefly: Cell uptake of pyrene incorporated micelles. Type of data set: cell-based, rat. The following applies: 390 nm, zero time = 1, PCL14-b-PEO44 micelles. The method, then:
The in vitro biocompatibility of the PCL-b-PEO micelles (14-b-44, 20-b-44) was tested by incubating the micelles with a wide range of cell lines for both 24-hour and 48-hour periods. The Trypan blue and Alamar blue survival assays were then used to quantify the survival rates in the presence of the PCL-b-PEO micelles. The capability of the PCL-b-PEO micelle system to deliver a hydrophobic compound was first tested in vitro using pyrene as a model compound. The pyrene incorporated PCL-b-PEO micelles were incubated with PC 12 cells over a 24-hour period. At 0, 4, 8 and 24 hours, samples of the supernatant were studied by fluorescence in order to determine the quantity of pyrene remaining in the supernatant at each time point. Likewise, at each time point, cells were isolated and their fluorescence was examined under the fluorescence microscope in order to determine if the decrease in the fluorescence within the supernatant was accompanied by an increase in fluorescence within the cells.
Pyrene incorporated micelles were prepared such that a total of 2×10^−7 moles/L of pyrene had been added to the 1% (w/w) micelle (PCL14-b-PEO44) solution, An aliquot of the micelle solution was incubated with PC 12 cells cultured in DMEM at 37° C., 5% CO2. At time 0, and 4, 8 and 24 hours, the fluorescence intensity (Perkin Elmer LS 50) of the supernatant was measured at 390 nm to determine the amount of pyrene remaining in the supernatant. Controls consisting of medium or medium and micelles alone were also measured. Following the removal of the aliquot of supernatant at each time point, the remaining supernatant was removed and the cells were washed three times with 100 uL of phosphate buffer saline. The cells were then gently scraped and fixed with aquamount on a slide and analyzed using a fluorescence microscope (Olympus BH-2).

For data set [3] the following is noted: polystyrene-b-polyacrylic acid micelles; Zhao et al. 1997; cited from earlier work.
[4] abbreviates: drug alone 1 to 500 nM, 48 h, untreated control = 100%.

For `C=CC[C@@H]1/C=C(\C)C[C@H](C)C[C@H](OC)[C@H]2O[C@@](O)(C(=O)C(=O)N3CCCC[C@H]3C(=O)O[C@H](/C(C)=C/[C@@H]3CC[C@@H](O)[C@H](OC)C3)[C@H](C)[C@@H](O)CC1=O)[C@H](C)C[C@@H]2OC` [FK506], the “degree of neurite-like outgrowth” value in data set [1] (setting [4]) is approximately 100%; in data set [1] (free FK506 1-100 nM with 5 ng/mL NGF, 48 h) it was 220-380%. For the same molecule, the “dose adequate to potentiate neurite-like outgrowth” value in data set [1] (in vitro, PC12 cell cultures) worked out at 1 nM.

As for `c1cc2ccc3cccc4ccc(c1)c2c34` [pyrene], in data set [2], the “partition coefficient (Kv) for pyrene between PCL-b-PEO micelles and water” value was ~10^2. For the same molecule, the entries for the “relative fluorescence intensity of pyrene in supernatant” value in the data set with PC 12 cells (after 4 hours), in the data set on PC 12 cells (after 8 hours) and with PC 12 cells (after 24 hours) were 0.70 (±0.05), 0.60 (±0.05) and 0.55 (±0.05), respectively. For the same molecule, in data set [3], the “partition coefficient for pyrene between PS-b-PAA micelles and water” value is ~10^5.

As for `CC[C@@H]1/C=C(\C)[C@@H](O)[C@H](C)C[C@H](OC)[C@H]2O[C@@](O)(C(=O)C(=O)N3CCCC[C@H]3C(=O)O[C@H](/C(C)=C/[C@@H]3CC[C@@H](O)[C@H](OC)C3)[C@H](C)[C@@H](O)CC1=O)[C@H](C)C[C@@H]2OC` [L-685,818], in data set [1] (setting [4]), the “degree of neurite-like outgrowth” value is approximately 100%. Also, the “effect of drug concentration on degree of differentiation” value in data set [1] (drug alone, no NGF, 48 h) is “no effect on the degree of differentiation”. Further, the “potentiation of the effect of NGF on neurite-like outgrowth” value in data set [1] (with 5 ng/mL NGF, PC 12 cell cultures) is on record as “potentiate the effect of NGF on the outgrowth of PC 12 cells”.

For the molecule NGF: nerve growth factor, the “degree of neurite-like outgrowth” value in data set [1] (5 ng/mL NGF alone, 48 h, untreated control = 100%) was 160±5% and 180±6%; in data set [1] (NGF alone 0.1 to 50 ng/mL, 48 h, untreated control = 100%), 110-260%.
